Experimental data from ChEMBL document CHEMBL1130312, “Synthesis and receptor binding affinity of conformationally restricted retinoic acid analogues” (Bioorg Med Chem Lett, 1997).

Tests used:
[1] = target: T1, Retinoic acid receptor beta (Homo sapiens, UniProt P10826); assay: Binding affinity towards cRAR-beta-2 receptor by displacing 1.1 nM 3[H]-9-cis-RA; IA = Inactive
T1 sequence (P10826 whole entry): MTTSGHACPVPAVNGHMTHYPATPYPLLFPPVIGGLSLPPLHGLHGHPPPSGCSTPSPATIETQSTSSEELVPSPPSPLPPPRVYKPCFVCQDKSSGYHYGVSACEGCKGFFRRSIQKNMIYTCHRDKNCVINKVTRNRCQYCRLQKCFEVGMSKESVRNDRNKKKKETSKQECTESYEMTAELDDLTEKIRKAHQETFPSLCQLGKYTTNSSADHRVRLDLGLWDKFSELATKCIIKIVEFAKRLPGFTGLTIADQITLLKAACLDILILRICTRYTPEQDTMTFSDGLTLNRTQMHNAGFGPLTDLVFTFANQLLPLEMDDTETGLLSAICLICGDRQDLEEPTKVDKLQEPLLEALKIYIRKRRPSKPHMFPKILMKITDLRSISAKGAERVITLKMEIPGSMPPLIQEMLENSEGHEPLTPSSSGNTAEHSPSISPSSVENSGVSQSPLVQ

[2] = target: T1, Retinoic acid receptor beta; assay: Binding affinity towards cRAR-beta-2 receptor by displacing 0.82 nM 3[H]-all-trans-RA; IA = Inactive
[3] = target: T2, Retinoic acid receptor RXR-gamma (Homo sapiens, UniProt P48443); assay: Binding affinity towards Retinoic acid receptor RXR-gamma by displacing 3.4 nM 3[H]-9-cis-RA; IA = Inactive
T2 sequence (P48443 whole entry): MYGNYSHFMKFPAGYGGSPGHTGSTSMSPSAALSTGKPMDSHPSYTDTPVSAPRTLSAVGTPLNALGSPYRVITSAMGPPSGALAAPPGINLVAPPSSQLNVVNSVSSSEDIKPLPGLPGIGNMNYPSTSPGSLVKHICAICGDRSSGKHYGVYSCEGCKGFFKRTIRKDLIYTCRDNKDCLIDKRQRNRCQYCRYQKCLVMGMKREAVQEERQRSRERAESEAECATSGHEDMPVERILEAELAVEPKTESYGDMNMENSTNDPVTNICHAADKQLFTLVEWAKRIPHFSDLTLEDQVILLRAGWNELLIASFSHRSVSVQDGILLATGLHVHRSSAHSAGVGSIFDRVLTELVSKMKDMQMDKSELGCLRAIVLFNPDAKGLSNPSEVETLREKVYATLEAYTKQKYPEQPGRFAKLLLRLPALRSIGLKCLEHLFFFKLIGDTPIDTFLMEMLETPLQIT

[4] = target: T1, Retinoic acid receptor beta; assay: Binding affinity towards cRAR-beta-2 receptor by displacing 1.1 nM 3[H]-9-cis-RA
[5] = target: T2, Retinoic acid receptor RXR-gamma; assay: Binding affinity towards Retinoic acid receptor RXR-gamma by displacing 3.4 nM 3[H]-9-cis-RA
[6] = target: T1, Retinoic acid receptor beta; assay: Binding affinity towards cRARbeta2 receptor by displacing 0.82 nM 3[H]all-trans-RA
[7] = target: T3, Retinoic acid receptor alpha (Homo sapiens, UniProt P10276); assay: Binding affinity towards human Retinoic acid receptor alpha
T3 sequence (P10276 whole entry): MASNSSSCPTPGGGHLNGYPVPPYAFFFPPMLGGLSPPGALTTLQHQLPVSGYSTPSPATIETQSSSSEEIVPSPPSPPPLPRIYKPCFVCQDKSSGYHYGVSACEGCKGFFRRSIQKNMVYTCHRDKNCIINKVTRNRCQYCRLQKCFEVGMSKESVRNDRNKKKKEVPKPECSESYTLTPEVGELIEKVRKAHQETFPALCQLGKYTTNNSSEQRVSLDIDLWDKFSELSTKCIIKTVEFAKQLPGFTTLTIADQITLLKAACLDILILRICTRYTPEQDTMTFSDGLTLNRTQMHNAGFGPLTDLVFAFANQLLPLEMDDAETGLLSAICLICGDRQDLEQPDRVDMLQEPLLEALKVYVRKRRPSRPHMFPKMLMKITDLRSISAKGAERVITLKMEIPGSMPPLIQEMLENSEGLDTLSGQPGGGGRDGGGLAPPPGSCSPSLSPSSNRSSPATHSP

[8] = target: T4, Retinoic acid receptor gamma (Homo sapiens, UniProt P13631); assay: Binding affinity towards human Retinoic acid receptor gamma
T4 sequence (P13631 whole entry): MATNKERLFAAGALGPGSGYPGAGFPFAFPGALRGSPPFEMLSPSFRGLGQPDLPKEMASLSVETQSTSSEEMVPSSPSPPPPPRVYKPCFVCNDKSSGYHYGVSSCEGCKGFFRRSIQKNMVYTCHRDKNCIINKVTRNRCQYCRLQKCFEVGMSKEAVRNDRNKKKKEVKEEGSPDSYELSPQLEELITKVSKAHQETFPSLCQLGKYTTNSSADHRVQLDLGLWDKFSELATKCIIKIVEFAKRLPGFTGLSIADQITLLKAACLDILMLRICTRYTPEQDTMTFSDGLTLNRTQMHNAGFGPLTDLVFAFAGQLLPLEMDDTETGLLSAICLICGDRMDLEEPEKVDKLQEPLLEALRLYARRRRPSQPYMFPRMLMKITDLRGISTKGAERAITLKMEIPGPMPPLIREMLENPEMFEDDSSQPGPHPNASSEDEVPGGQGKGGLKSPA

[9] = target: T2, Retinoic acid receptor RXR-gamma; assay: Binding affinity towards Retinoic acid receptor RXR-gamma by displacing 3.4 nM 3[H]-9-cis-RA; No binding competition

Ki [1]	Ki [2]	Ki [3]	Ki [4] [nM]	Ki [5] [nM]	Ki [6] [nM]	Ki [7] [nM]	Ki [8] [nM]	Structure (SMILES)	Ki [9]
Not Active	Not Active	Not Active	–	–	–	–	–	CCOC(=O)[C@H]1C[C@@]1(C)/C=C/C=C(C)/C=C/C1=C(C)CCCC1(C)C	–
–	–	–	13	> 7200	11	3.1	32	CC(/C=C/C1CC1/C=C/C1=CC(C)(C)CCC1(C)C)=C\C(=O)O (stereo not drawn)	–
Not Active	Not Active	Not Active	–	–	–	–	–	CCOC(=O)[C@@H]1C[C@@]1(C)/C=C/C=C(C)/C=C/C1=C(C)CCCC1(C)C	–
–	–	–	> 1200	> 2800	> 1100	> 4000	> 4000	CC(=C/C(=O)O)/C=C/C1CC1/C=C/C1=CC(C)(C)CCC1(C)C (stereo not drawn)	–
–	–	–	–	–	–	–	–	CC1=C(/C=C/C(C)=C/C=C/C(C)=C/C(=O)O)C(C)(C)CCC1 [TRETINOIN]	Not Active
–	–	–	–	–	–	–	–	C/C(=C\c1ccc(C(=O)O)cc1)c1ccc2c(c1)C(C)(C)CCC2(C)C	Not Active
